Source: PubChem BioAssay (NCI)
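Briefly, cells in 96-well plates were exposed to five compound concentrations for 48 h, and endpoints were estimated by linear interpolation. TGI denotes the concentration required for complete inhibition of growth.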

Legend:
Experiment in all cases: DTP human tumour cell line panel, 48 h
786-0 renal = tested on: 786-0 renal
A498 renal = tested on: A498 renal
A549 NSCLC = tested on: A549 NSCLC
ACHN renal = tested on: ACHN renal
BT-549 breast = tested on: BT-549 breast
CAKI-1 renal = tested on: CAKI-1 renal
CCRF-CEM leukemia = tested on: CCRF-CEM leukemia
COLO 205 colon = tested on: COLO 205 colon
DU-145 prostate = tested on: DU-145 prostate
EKVX NSCLC = tested on: EKVX NSCLC
HCC-2998 colon = tested on: HCC-2998 colon
HCT-116 colon = tested on: HCT-116 colon
HCT-15 colon = tested on: HCT-15 colon
HL-60(TB) leukemia = tested on: HL-60(TB) leukemia
HOP-62 NSCLC = tested on: HOP-62 NSCLC
HOP-92 NSCLC = tested on: HOP-92 NSCLC
HS 578T breast = tested on: HS 578T breast
HT29 colon = tested on: HT29 colon
IGROV1 ovarian = tested on: IGROV1 ovarian
K-562 leukemia = tested on: K-562 leukemia
KM12 colon = tested on: KM12 colon
LOX IMVI melanoma = tested on: LOX IMVI melanoma
M14 melanoma = tested on: M14 melanoma
MALME-3M melanoma = tested on: MALME-3M melanoma
MCF7 breast = tested on: MCF7 breast
MDA-MB-231 breast = tested on: MDA-MB-231 breast
MDA-MB-435 = tested on: MDA-MB-435
MDA-N = tested on: MDA-N
MOLT-4 leukemia = tested on: MOLT-4 leukemia
NCI-H226 lung = tested on: NCI-H226 lung
NCI-H460 lung = tested on: NCI-H460 lung
NCI-H522 lung = tested on: NCI-H522 lung
NCI/ADR-RES ovarian = tested on: NCI/ADR-RES ovarian
OVCAR-3 ovarian = tested on: OVCAR-3 ovarian
OVCAR-4 ovarian = tested on: OVCAR-4 ovarian
OVCAR-8 ovarian = tested on: OVCAR-8 ovarian
PC-3 prostate = tested on: PC-3 prostate
RPMI-8226 leukemia = tested on: RPMI-8226 leukemia
RXF 393 renal = tested on: RXF 393 renal
SF-268 CNS = tested on: SF-268 CNS
SF-295 CNS = tested on: SF-295 CNS
SF-539 CNS = tested on: SF-539 CNS
SK-MEL-28 melanoma = tested on: SK-MEL-28 melanoma
SK-MEL-5 melanoma = tested on: SK-MEL-5 melanoma
SK-OV-3 ovarian = tested on: SK-OV-3 ovarian
SN12C renal = tested on: SN12C renal
SNB-19 CNS = tested on: SNB-19 CNS
SR leukemia = tested on: SR leukemia
SW-620 colon = tested on: SW-620 colon
T-47D breast = tested on: T-47D breast
TK-10 renal = tested on: TK-10 renal
U251 CNS = tested on: U251 CNS
UACC-257 melanoma = tested on: UACC-257 melanoma
UACC-62 melanoma = tested on: UACC-62 melanoma
UO-31 renal = tested on: UO-31 renal
NCI-H23 lung = tested on: NCI-H23 lung
OVCAR-5 ovarian = tested on: OVCAR-5 ovarian
SK-MEL-2 melanoma = tested on: SK-MEL-2 melanoma
SNB-75 CNS = tested on: SNB-75 CNS

Measured: TGI

O=C(Cc1nccc2c1[nH]c1ccccc12)OC1C#CCSCC#C/C=C\1 (stereo unspecified)
> 100 µM: 786-0 renal | A498 renal | A549 NSCLC | ACHN renal | BT-549 breast | CAKI-1 renal | CCRF-CEM leukemia | COLO 205 colon | DU-145 prostate | EKVX NSCLC | HCC-2998 colon | HCT-116 colon | HCT-15 colon | HL-60(TB) leukemia | HOP-62 NSCLC | HOP-92 NSCLC | HS 578T breast | HT29 colon | IGROV1 ovarian | K-562 leukemia | KM12 colon | LOX IMVI melanoma | M14 melanoma | MALME-3M melanoma | MCF7 breast | MDA-MB-231 breast | MDA-MB-435 | MDA-N | MOLT-4 leukemia | NCI-H226 lung | NCI-H460 lung | NCI-H522 lung | NCI/ADR-RES ovarian | OVCAR-3 ovarian | OVCAR-4 ovarian | OVCAR-8 ovarian | PC-3 prostate | RPMI-8226 leukemia | RXF 393 renal | SF-268 CNS | SF-295 CNS | SF-539 CNS | SK-MEL-28 melanoma | SK-MEL-5 melanoma | SK-OV-3 ovarian | SN12C renal | SNB-19 CNS | SR leukemia | SW-620 colon | T-47D breast | TK-10 renal | U251 CNS | UACC-257 melanoma | UACC-62 melanoma | UO-31 renal

COC1(OC)CC(CO)(CNc2cc(Cl)nc(N)n2)C1
> 100 µM: 786-0 renal | A549 NSCLC | ACHN renal | BT-549 breast | CAKI-1 renal | CCRF-CEM leukemia | COLO 205 colon | DU-145 prostate | EKVX NSCLC | HCC-2998 colon | HCT-116 colon | HCT-15 colon | HL-60(TB) leukemia | HOP-62 NSCLC | HS 578T breast | HT29 colon | IGROV1 ovarian | K-562 leukemia | KM12 colon | LOX IMVI melanoma | MALME-3M melanoma | MCF7 breast | MDA-MB-231 breast | MDA-MB-435 | MDA-N | MOLT-4 leukemia | NCI-H226 lung | NCI-H23 lung | NCI-H460 lung | NCI-H522 lung | NCI/ADR-RES ovarian | OVCAR-3 ovarian | OVCAR-4 ovarian | OVCAR-5 ovarian | OVCAR-8 ovarian | PC-3 prostate | RPMI-8226 leukemia | RXF 393 renal | SF-268 CNS | SF-295 CNS | SF-539 CNS | SK-MEL-2 melanoma | SK-MEL-28 melanoma | SK-MEL-5 melanoma | SK-OV-3 ovarian | SN12C renal | SNB-19 CNS | SR leukemia | SW-620 colon | T-47D breast | TK-10 renal | U251 CNS | UACC-257 melanoma | UACC-62 melanoma | UO-31 renal

c1ccc2c(c1)ncn2C1CCCCO1 (stereo unspecified)
> 100 µM: 786-0 renal | A549 NSCLC | ACHN renal | BT-549 breast | CCRF-CEM leukemia | COLO 205 colon | DU-145 prostate | EKVX NSCLC | HCC-2998 colon | HCT-116 colon | HCT-15 colon | HL-60(TB) leukemia | HOP-62 NSCLC | HOP-92 NSCLC | HS 578T breast | HT29 colon | IGROV1 ovarian | K-562 leukemia | KM12 colon | LOX IMVI melanoma | M14 melanoma | MALME-3M melanoma | MCF7 breast | MDA-MB-231 breast | MDA-MB-435 | MDA-N | MOLT-4 leukemia | NCI-H226 lung | NCI-H23 lung | NCI-H522 lung | NCI/ADR-RES ovarian | OVCAR-3 ovarian | OVCAR-4 ovarian | OVCAR-5 ovarian | OVCAR-8 ovarian | PC-3 prostate | RPMI-8226 leukemia | RXF 393 renal | SF-268 CNS | SF-295 CNS | SF-539 CNS | SK-MEL-2 melanoma | SK-MEL-28 melanoma | SK-MEL-5 melanoma | SK-OV-3 ovarian | SN12C renal | SNB-19 CNS | SNB-75 CNS | SR leukemia | SW-620 colon | T-47D breast | TK-10 renal | U251 CNS | UACC-257 melanoma | UACC-62 melanoma | UO-31 renal
